The source of these data is patent US20060013897A1, “Compositions for cancer therapy saponins or sapogenins” (priority 2002, published 2006).

Molecules are shown by their SMILES.

Holding throughout (assay type): cell-based
For assay [1], the system named is mouse melanoma cells (B16). Nature of the assay: MTT cytotoxicity assay, B16 cells. The settings on record: 10 μg/mL (individual components at similar concentrations), MTT at 24 hours. The source says: (§1) Preparation of Compositions: A process of preparing a composition comprising of Rh2, aPPD, and aPPT saponins and/or sapogenins from plants selected from the group consisting of panax ginseng, panax quinguefol and panax notoginseng, or a sapogenin source from some other plant, and proceeding according to the following steps: • (a) mixing the ginsenoside extract with water; • (b) (i) mixing the ginsenoside extract and water with a short-chain (1-5 carbon) alkali-metal alcoholate solution or a hydroxide-ethanol solution to produce a mixture; and • (ii) placing the resultant mixture in a reaction tank so that the resultant mixture can undergo chemical reactions at a temperature between 240 and 300° C. and at a pressure between 3.5 and 8.4 MPa; or • (c) (i) alternatively, mixing the ginsenosides extract with ethanol; • (ii) mixing the extract and ethanol with alkali-metal alcoholates solution to produce a mixture, and • (iii) placing the resultant mixture in a reaction tank so that the resultant mixture can undergo chemical reactions at a temperature between 240 and 300° C. and at a pressure between 3.5 and 8.4 MPa; and • (d) after the reaction is completed, collecting an intermediate product of a mix of saponins and/or sapogenins from the ethanol mixture. Cytotoxicity was measured using a standard microculture tetrazolium assay (MTT) (Alley, M C et al, Cancer Research 48:589-601, 1988). Exponentially growing cultures of tumor cells, including multi-drug resistant cell lines, were used to make microtiter plate cultures. Cells were seeded at 1.2×10^3 cells per well in 96-well plates, and grown overnight at 37° C. Test compounds were then added. Cells were treated for 24 hours. To determine the number of viable cells in each well, the MTT dye was added (3-(4,5-dimethylthiazol-2-yl)-2,5-diphenyltetrazolium bromide in saline) in accordance with the standard practice known in the art.
Cultured mouse melanoma cells (B16) were treated with the saponins and sapogenins Rh2, aPPT, and aPPD, individually, at various concentrations. […]
(In general: Formazan colour is commonly taken as a measure of viable cells.)

Assay [2] deals with human glioma tumor cells (U87). Put plainly: MTT cytotoxicity assay, U87 cells. The settings on record: 15 μg/mL (individual components at similar concentrations), MTT at 24 hours.
Text: as §1
Cultured human glioma tumor cells (U87) were treated with the saponins and sapogenins Rh2, aPPT, and aPPD, individually, at various concentrations. […]

Assay [3] relates to human breast cancer cells (MCF7). Put plainly: MTT cytotoxicity assay, MCF7 cells. Conditions: 15 μg/mL (individual components at similar concentrations), MTT at 24 hours.
Text: as §1
Cultured human breast cancer cells (MCF7) were treated with the saponins and sapogenins Rh2, aPPT, and aPPD, individually, at various concentrations. […]

As for `CC(C)=CCC[C@](C)(O)[C@H]1CC[C@]2(C)[C@@H]1[C@H](O)C[C@@H]1[C@@]3(C)CC[C@H](O[C@@H]4O[C@H](CO)[C@@H](O)[C@H](O)[C@H]4O)C(C)(C)[C@@H]3CC[C@]12C` [Rh2, 3-O-β-D-glucopyranosyl-20(s)-protopanaxadiol], the cancer cells killed is listed as 56% in assay [1], 64% in assay [2] and 68% in assay [3].

As for `CC(C)=CCC[C@](C)(O)[C@H]1CC[C@]2(C)[C@@H]1[C@H](O)C[C@@H]1[C@@]3(C)CC[C@H](O)C(C)(C)[C@@H]3[C@@H](O)C[C@]12C` [aPPT, aglycon protopanaxatriol], the cancer cells killed in assay [1] is listed as 47%; in assay [2] it was 29%; in assay [3], 68%.

Take `CC(C)=CCC[C@@](C)(O)[C@H]1CC[C@]2(C)[C@@H]1[C@H](O)C[C@@H]1[C@@]3(C)CC[C@H](O)C(C)(C)[C@@H]3CC[C@]12C` [aPPD, aglycon protopanaxadiol]: the cancer cells killed in assay [1] is on record as 44%; in assay [2] it was 52%; in assay [3] it was 69%.
